Patent publication US20150250785A1, “Tropomyosin-Related Kinase Inhibitors” (PFIZER LIMITED, priority 2012, published 2015)

Molecular target: T1, TRKA (NTRK1) recombinant His-tagged cytoplasmic domain aa 441-796 (Homo sapiens, UniProt P04629)
T1 construct: aa 441-; 4 nM; 40 uM; 35 min; (NTRK1); 796; His; purchased Invitrogen PV3144
Experiment: Isolated TRK enzyme assay (HTRF KinEASE-TK), PV3144 TrkA
Type: biochemical
Details: 4 nM enzyme, 40 uM ATP, 35 min, arithmetic mean where more than one reading
Experimental: Isolated TRK Enzyme assays use the HTRF KinEASE-TK kit (Cisbio Cat#62TK0PEJ) with recombinant His-tagged cytoplasmic domains of each TRK receptor sourced from Invitrogen (see table below). This activity-assay measures the phosphorylation of tyrosine residues within a substrate from the HTRF kit which has been validated by Cisbio for a variety of tyrosine kinases including the TRK receptors.
0.5 mM stock solutions of test compounds are prepared and serially diluted in 100% DMSO. A standard curve using the compound of Example 135 disclosed in WO2005/116035 of 150 uM is also prepared on each test plate. High percentage effect (HPE) is defined by 150 uM (using the compound of Example 135 as disclosed in WO2005/116035) and 0% effect (ZPE) is defined by 100% DMSO. Greiner low volume black plates containing 0.2 ul of serially diluted compound, standard and HPE/ZPE are created using the Bravo nanolitre dispenser.
1× enzyme buffer is prepared from 5× Enzymatic Buffer from the Cisbio KinEASE TK kit using MilliQ water. The buffer is then supplemented with 10 mM MgCl and 2 mM DTT (both from Sigma). In the case of TRKB, the buffer is also supplemented with 125 nM Supplement Enzymatic Buffer (SEB) from the Cisbio kit.
2×FAC of enzyme and 2×FAC ATP diluted in 1× complete enzyme buffer is incubated at room temperature for 20 minutes to preactivate the enzyme. Following this preactivation step, 5 ul/well of enzyme+ATP mix is added using a Multidrop Micro to the assay plate, spotted with 0.2 ul 100% DMSO compound. […]
After the Detection Reagent addition, plates are covered and incubated at room temperature for 60 minutes. HTRF signal is read using an Envision reader, measured as a ratio of emissions at two different wavelengths, 620 nm and 665 nm. […] Test compound data are expressed as percentage inhibition defined by HPE and ZPE values for each plate. […]
Below are TrkA IC50 data generated using the PV3144 TrkA enzyme assay. Where more than one reading was taken, the arithmetic mean is presented.

T1 sequence (P04629 441-796): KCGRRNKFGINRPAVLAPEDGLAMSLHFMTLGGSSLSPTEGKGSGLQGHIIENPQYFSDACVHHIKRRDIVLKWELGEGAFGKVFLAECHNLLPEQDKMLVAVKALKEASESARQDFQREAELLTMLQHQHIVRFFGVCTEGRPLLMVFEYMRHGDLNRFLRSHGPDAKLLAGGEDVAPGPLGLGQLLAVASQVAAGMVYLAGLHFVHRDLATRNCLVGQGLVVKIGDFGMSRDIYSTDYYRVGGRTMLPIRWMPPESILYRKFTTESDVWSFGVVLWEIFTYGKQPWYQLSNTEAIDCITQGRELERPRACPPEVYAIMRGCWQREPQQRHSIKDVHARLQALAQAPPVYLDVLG

SMILES	IC50 [nM]
CC(C)n1nc(C(=O)c2ccnc(NC(=O)Cc3coc(C4CC4)n3)c2)c2cnccc21 [Example 1, 2-(2-cyclopropyl-1,3-oxazol-4-yl)-N-{4-[(1-isopropyl-1H-pyrazolo[4,3-c]pyridin-3-yl)carbonyl]pyridin-2-yl}acetamide]	21
CC(C)n1nc(C(=O)c2ccnc(NC(=O)Cc3ccc(C#N)cc3)c2)c2cnccc21 [Example 2, 2-(4-cyanophenyl)-N-{4-[(1-isopropyl-1H-pyrazolo[4,3-c]pyridin-3-yl)carbonyl]pyridin-2-yl}acetamide]	20.4
CC(C)c1nc(C(=O)c2ccnc(NC(=O)Cn3ccc(C(F)(F)F)n3)c2)c2cnccn12 [Example 3, N-{4-[(3-isopropylimidazo[1,5-a]pyrazin-1-yl)carbonyl]pyridin-2-yl}-2-[3-(trifluoromethyl)-1H-pyrazol-1-yl]acetamide]	16.6
